Where a name gives a salt, the structure may show the parent alone.
These compounds were tested on ddY-type mice (assay: Analgesic efficacy test (1): acetic acid writhing test (nociceptive pain model animal)). Conditions: Mus musculus, 25 min; writhing number, male ddY mice, oral single dose 10 mg/kg, acetic acid i.p. 25 min after administration, mean ± standard error; read-out: Percent Suppression (%).
Assay type: in vivo
Description: A compound of the present invention was orally administered to mice, to carry out an analgesic efficacy test according to acetic acid writhing test (nociceptive pain model animal). As an experimental animal, 4-week old male ddY-type mice were previously bred, and thereafter 8 mice per one group were used in the experiment. A solution or suspension prepared by dissolving or suspending a compound of the present invention in a 0.5% (w/v) aqueous CMC-Na solution was orally administered as a test substance in a single dose. While, to a control group, a 0.5% (w/v) aqueous CMC-Na solution was administered in the same manner. After 25 minutes from administration, the mice were intraperitoneally administered with a 0.7% (v/v) acetic acid/physiological saline at the dose of 10 mL/kg. From 5 minutes thereafter, writhing number in a 10-minute period was counted, and a suppressive rate for each individual (mean±standard error) was calculated by the following formula: […]
In the test for significance difference, Baltlett's test was carried out in the comparison between multiple groups of the group administered with test substance with the control group. In the case of homoscedasticity, Dunnett's multiple comparison test of parametrics, and in the case of heteroscedasticity, Dunnett's multiple comparison test of non-parametrics were used. In addition, in the test of dose dependency, Jockheere-Terpstra's test was used. In all cases, significance difference was considered to be found at P<0.05.
`COc1ccc(C[C@H](NC(=O)C=Cc2cccc(O)c2)C(=O)O)cc1` [Compound 43, N-[3-(3-Hydroxyphenyl)acryloyl]-O^4-methyl-L-tyrosine] gave an inhibition in vivo at 10 mg/kg of 45.3 ± 10.8%. For `COc1ccc(C[C@H](NC(=O)C=Cc2ccc(O)cc2)C(=O)O)cc1` [Compound 44, N-[3-(4-Hydroxyphenyl)acryloyl]-O^4-methyl-L-tyrosine], the inhibition in vivo at 10 mg/kg was 48 ± 10.3%. `NCCC[C@H](NC(=O)C=Cc1ccccc1F)C(=O)O` [Compound 63, N^α-[3-(2-Fluorophenyl)acryloyl]-L-ornithine hydrochloride] gave an inhibition in vivo at 10 mg/kg of 41.1 ± 7.8%. With `COc1ccc(C[C@H](NC(=O)C=Cc2ccccc2OC)C(=O)O)cc1` [Compound 48, N-[3-(2-Methoxyphenyl)acryloyl]-O^4-methyl-L-tyrosine] the inhibition in vivo at 10 mg/kg was 43.2 ± 7.3%. `O=C(C=Cc1ccccc1F)N[C@@H](Cc1ccc(O)cc1)C(=O)O` [Compound 62, N-[3-(2-Fluorophenyl)acryloyl]-L-tyrosine] was tested, and the inhibition in vivo at 10 mg/kg was 39.2 ± 13.5%.

Same assay, conditions: Mus musculus, 25 min; writhing number, male ddY mice, oral single dose 100 mg/kg, acetic acid i.p. 25 min after administration, mean ± standard error; read-out: Percent Suppression (%)
For `O=C(C=Cc1ccc(O)cc1)N[C@@H](Cc1c[nH]c2ccccc12)C(=O)O` [Compound 7, N^α-[3-(4-Hydroxyphenyl)acryloyl]-L-tryptophan], the inhibition in vivo at 100 mg/kg was 37.3 ± 11.8%. `Cn1cc(C[C@H](NC(=O)C=Cc2c(F)cccc2F)C(=O)O)c2ccccc21` [Compound 31, N^α-[3-(2,6-Difluorophenyl)acryloyl]-1-methyl-L-tryptophan] gave an inhibition in vivo at 100 mg/kg of 31.5 ± 9.7%. With `Cn1cc(C[C@H](NC(=O)C=Cc2ccc(Oc3ccccc3)cc2)C(=O)O)c2ccccc21` [Compound 35, 1-Methyl-N^α-[3-(4-phenoxyphenyl)acryloyl]-L-tryptophan] the inhibition in vivo at 100 mg/kg was 55.2 ± 7.4%. `O=C(C=Cc1ccccc1F)N[C@@H](CO)C(=O)O` [Compound 66, N-[3-(2-Fluorophenyl)acryloyl]-L-serine] was tested, and the inhibition in vivo at 100 mg/kg was 56 ± 6.9%. `COc1ccc(C[C@H](NC(=O)C=Cc2ccccc2C(F)(F)F)C(=O)O)cc1` [Compound 47, O^4-Methyl-N-[3-(2-Trifluoromethylphenyl)acryloyl]-L-Tyrosine] gave an inhibition in vivo at 100 mg/kg of 36.2 ± 11.2%. `O=C(C=Cc1cccc(O)c1)N[C@@H](Cc1c[nH]c2ccccc12)C(=O)O` [Compound 6, N^α-[3-(3-Hydroxyphenyl)acryloyl]-L-tryptophan] gave an inhibition in vivo at 100 mg/kg of 39.2 ± 15.4%. In the case of `COc1ccc(C[C@H](NC(=O)C=Cc2ccccc2Cl)C(=O)O)cc1` [Compound 49, N-[3-(2-Chlorophenyl)acryloyl]-O^4-methyl-L-tyrosine], the inhibition in vivo at 100 mg/kg is reported as 31.8 ± 7%. `O=C(C=Cc1ccccc1Cl)N[C@@H](Cc1c[nH]c2ccccc12)C(=O)O` [Compound 12, N^α-[3-(2-Chlorophenyl)acryloyl]-L-tryptophan] showed an inhibition in vivo at 100 mg/kg of 34.9 ± 11.5%. Work on `COc1ccc(C[C@H](NC(=O)C=Cc2cccc(F)c2)C(=O)O)cc1` [Compound 41, N-[3-(3-Fluorophenyl)acryloyl]-O^4-methyl-L-tyrosine] yielded an inhibition in vivo at 100 mg/kg of 47.3 ± 15.7%. `NCCCC[C@H](NC(=O)C=Cc1ccccc1F)C(=O)O` [Compound 61, N^α-[3-(2-Fluorophenyl)acryloyl]-L-lysine hydrochloride] showed an inhibition in vivo at 100 mg/kg of 40.5 ± 7.8%. In the case of `COc1ccc(C[C@H](NC(=O)C=Cc2cc(C(F)(F)F)cc(C(F)(F)F)c2)C(=O)O)cc1` [Compound 53, N-{3-[3,5-Bis(trifluoromethyl)phenyl]acryloyl}-O^4-methyl-L-tyrosine], the inhibition in vivo at 100 mg/kg is reported as 32 ± 14.6%. With `NC(=O)CC[C@H](NC(=O)C=Cc1ccccc1F)C(=O)O` [Compound 65, N^α-[3-(2-Fluorophenyl)acryloyl]-L-glutamine] the inhibition in vivo at 100 mg/kg was 31.6 ± 13.1%. Compound `COc1ccc(C[C@H](NC(=O)C=Cc2c(F)cccc2F)C(=O)O)cc1` [Compound 50, N-[3-(2,6-Difluorophenyl)acryloyl]-O^4-methyl-L-tyrosine] has an inhibition in vivo at 100 mg/kg of 35.1 ± 15.4%. Work on `COc1ccc(C[C@H](NC(=O)C=Cc2ccccc2C#N)C(=O)O)cc1` [Compound 46, N-[3-(2-Cyanophenyl)acryloyl]-O^4-methyl-L-tyrosine] yielded an inhibition in vivo at 100 mg/kg of 38.7 ± 11.3%.
